Measurements reported in PMC9775191, “A Subset Screen of the Compounds Australia Scaffold Library Identifies 7-Acylaminodibenzoxazepinones as Potent and Selective Hits for Anti-Giardia Drug Discovery” (Biomedicines, 2022).

Tested on: G. duodenalis BRIS/91/HEPU/1279
Assay: Primary Giardia screen at 10 µM (live-cell imaging, automated counting)
Format: cell-based, Giardia duodenalis
Outline: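 Percent growth versus 0.2% DMSO vehicle, background-corrected with media-only wells, is reported at 24 and 48 h from automated live-cell counts. Testing used 10 μM final in a 3% O2 atmosphere, with plate quality checked by Z' factor.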

SMILES: Cc1nn(C)c(N2CCN(C(C)c3nc4ccccc4s3)CC2)c1[N+](=O)[O-] (stereo not drawn) [SN00772279]
- % Inhibition n=1 48h (48 h, first singlicate assay): 10.6%

SMILES: O=C(NCCc1ccccn1)c1ccc2[nH]c3c(c2c1)CN(C(=O)C1CCC1)CC3 [SN00798214]
- % Inhibition n=1 48h (48 h, first singlicate assay): 0.0%

SMILES: O=C(c1cc(C2CC2)nc2ccccc12)N1CC2CCC1C2 (stereo not drawn) [SN00777604]
- % Inhibition n=1 48h (48 h, first singlicate assay): 18.4%

SMILES: O=C(c1cc2occc2c(Nc2ccc(F)cc2)n1)N1CCN(c2ccccn2)CC1 [SN00790827]
- Average % Inhibition 24h (24 h): 14.2%
- % Inhibition n=1 24h (24 h, first singlicate assay): 21.9%
- % Inhibition n=2 24h (24 h, re-assessment): 6.5%
- Average % Inhibition 48h (48 h): 31.0%
- % Inhibition n=1 48h (48 h, first singlicate assay): 53.8%
- % Inhibition n=2 48h (48 h, re-assessment): 8.1%

SMILES: COc1ccc(-n2ccn(CC(=O)Nc3ccc(OC)cc3OC)c2=O)cc1 [SN00789162]
- % Inhibition n=1 48h (48 h, first singlicate assay): 0.0%

SMILES: COC(=O)c1ccc(F)c(S(=O)(=O)NC2(c3nc(C)cs3)CCC2)c1 [SN00772601]
- % Inhibition n=1 48h (48 h, first singlicate assay): 27.1%

SMILES: Cc1nnc(-c2cc(NS(=O)(=O)c3ccc(Cl)cc3)c(C)s2)o1 [SN00798629]
- % Inhibition n=1 48h (48 h, first singlicate assay): 2.8%

SMILES: c1cnc(N2CCCN(c3nc4ccccc4o3)CC2)nc1 [SN00778442]
- % Inhibition n=1 48h (48 h, first singlicate assay): 32.5%

SMILES: Cc1ccc([N+](=O)[O-])cc1N1CC(=O)C(c2nc3ccccc3[nH]2)=C1N [SN00785776]
- % Inhibition n=1 48h (48 h, first singlicate assay): 21.1%

SMILES: CC(=O)N1c2ccc(S(=O)(=O)N3CCCCC3)cc2CC1C(=O)N1CCCCC1 (stereo not drawn) [SN00791893]
- % Inhibition n=1 48h (48 h, first singlicate assay): 0.0%

SMILES: O=C(c1cccc(N2CCNC(c3ccccc3)C2)n1)N1CCN(c2ccccc2)CC1 (stereo not drawn) [SN00800322]
- % Inhibition n=1 48h (48 h, first singlicate assay): 13.5%

SMILES: Cc1cccc(C)c1NC(=O)Cn1c(=O)n(CCc2c[nH]c3ccccc23)c(=O)c2cccnc21 [SN00785456]
- % Inhibition n=1 48h (48 h, first singlicate assay): 0.5%

SMILES: O=S(=O)(Nc1ccc(OC2CCNCC2)nc1)c1ccccc1 [SN00799991]
- % Inhibition n=1 48h (48 h, first singlicate assay): 0.0%

SMILES: Cc1ccc(S(=O)(=O)N2CCC[C@H]2C(=O)N2CCN(CC(=O)Nc3cccc(C)c3C)CC2)cc1 [SN00772546]
- % Inhibition n=1 48h (48 h, first singlicate assay): 7.6%

SMILES: CCC(=O)N1CCCC1C1CCCN1Cc1cn2c(C)cccc2n1 (stereo not drawn) [SN00777763]
- % Inhibition n=1 48h (48 h, first singlicate assay): 16.6%

SMILES: CCC(C)NC(=O)N1CCc2c(sc3nc(-c4ccc(C)cc4)nn23)C1 (stereo not drawn) [SN00790900]
- % Inhibition n=1 48h (48 h, first singlicate assay): 10.9%

SMILES: COCCN1CCN(c2nc(-c3ccncc3)nc3c2CCC3)CC1 [SN00781610]
- % Inhibition n=1 48h (48 h, first singlicate assay): 15.0%

SMILES: CC(=O)Nc1nsc(N2CCCC(C(=O)NCc3ccccc3Cl)C2)n1 (stereo not drawn) [SN00800180]
- % Inhibition n=1 48h (48 h, first singlicate assay): 5.9%

SMILES: COCCN1C(=O)CCC(C(=O)O)C1c1cnn(-c2ccccc2)c1 (stereo not drawn) [SN00783261]
- % Inhibition n=1 48h (48 h, first singlicate assay): 0.0%

SMILES: CCn1c(C2NC(N)=Nc3nc4ccccc4n32)nc2ccccc21 (stereo not drawn) [SN00776112]
- % Inhibition n=1 48h (48 h, first singlicate assay): 5.4%

SMILES: CSc1ccc(N2CC(C(=O)N3c4ccccc4CC3C)CC2=O)cc1 (stereo not drawn) [SN00775126]
- % Inhibition n=1 48h (48 h, first singlicate assay): 0.0%

SMILES: O=C(Nc1cnc(-c2ccccc2)nc1)c1ccccc1C(F)(F)F [SN00799772]
- % Inhibition n=1 48h (48 h, first singlicate assay): 0.0%

SMILES: O=C1CCCN1CC1CCCCN1c1cc(Cl)c(C(F)(F)F)cc1[N+](=O)[O-] (stereo not drawn) [SN00780038]
- % Inhibition n=1 48h (48 h, first singlicate assay): 9.6%

SMILES: COc1ccc(NC(=O)N2CCC3(CC2)Nc2cc(C)ccc2-n2cccc23)cc1 [SN00793004]
- % Inhibition n=1 48h (48 h, first singlicate assay): 10.6%

SMILES: O=C1CC(C(=O)N2CCN(S(=O)(=O)c3ccc(Br)cc3)CC2)c2ccc(F)cc2N1 (stereo not drawn) [SN00779129]
- % Inhibition n=1 48h (48 h, first singlicate assay): 0.0%

SMILES: CCc1ccc(C(=O)N2CCC(Cc3nc(-c4ccc(OC)cc4)no3)CC2)cc1 [SN00801692]
- % Inhibition n=1 48h (48 h, first singlicate assay): 0.0%

SMILES: CCCc1cc(N2CCOCC2)n2nc(C)c(-c3ccccc3)c2n1 [SN00780810]
- % Inhibition n=1 48h (48 h, first singlicate assay): 20.2%

SMILES: O=C(c1c[nH]nc1-c1ccc(Cl)cc1)N1CCN(c2ccccc2)CC1 [SN00791700]
- % Inhibition n=1 48h (48 h, first singlicate assay): 26.6%

SMILES: Cc1ccc(CNC(=O)C2CCN(c3ncccc3-n3cccc3)CC2)cc1 [SN00790865]
- % Inhibition n=1 48h (48 h, first singlicate assay): 0.0%

SMILES: Cc1ccc([N+](=O)[O-])cc1NC(=O)N1CCC(n2cncn2)CC1 [SN00781334]
- % Inhibition n=1 48h (48 h, first singlicate assay): 0.0%

SMILES: CCOc1cc(C2OCCn3c(-c4ccccc4)c4c(=O)n(C)c(=O)n(C)c4c32)ccc1O (stereo not drawn) [SN00786012]
- % Inhibition n=1 48h (48 h, first singlicate assay): 8.5%
